This is an account of results in patent publication US9902696B2, “1,4-substituted piperidine derivatives” (Cephalon, Inc., priority 2015, dated 2018).

Counter-ions that a name gives are not always drawn.

The target in the assay is T1, recombinant human baculovirus-expressed GST-tagged FASN (Homo sapiens, UniProt P49327).
T1 construct: GST
T1 sequence (P49327 whole entry): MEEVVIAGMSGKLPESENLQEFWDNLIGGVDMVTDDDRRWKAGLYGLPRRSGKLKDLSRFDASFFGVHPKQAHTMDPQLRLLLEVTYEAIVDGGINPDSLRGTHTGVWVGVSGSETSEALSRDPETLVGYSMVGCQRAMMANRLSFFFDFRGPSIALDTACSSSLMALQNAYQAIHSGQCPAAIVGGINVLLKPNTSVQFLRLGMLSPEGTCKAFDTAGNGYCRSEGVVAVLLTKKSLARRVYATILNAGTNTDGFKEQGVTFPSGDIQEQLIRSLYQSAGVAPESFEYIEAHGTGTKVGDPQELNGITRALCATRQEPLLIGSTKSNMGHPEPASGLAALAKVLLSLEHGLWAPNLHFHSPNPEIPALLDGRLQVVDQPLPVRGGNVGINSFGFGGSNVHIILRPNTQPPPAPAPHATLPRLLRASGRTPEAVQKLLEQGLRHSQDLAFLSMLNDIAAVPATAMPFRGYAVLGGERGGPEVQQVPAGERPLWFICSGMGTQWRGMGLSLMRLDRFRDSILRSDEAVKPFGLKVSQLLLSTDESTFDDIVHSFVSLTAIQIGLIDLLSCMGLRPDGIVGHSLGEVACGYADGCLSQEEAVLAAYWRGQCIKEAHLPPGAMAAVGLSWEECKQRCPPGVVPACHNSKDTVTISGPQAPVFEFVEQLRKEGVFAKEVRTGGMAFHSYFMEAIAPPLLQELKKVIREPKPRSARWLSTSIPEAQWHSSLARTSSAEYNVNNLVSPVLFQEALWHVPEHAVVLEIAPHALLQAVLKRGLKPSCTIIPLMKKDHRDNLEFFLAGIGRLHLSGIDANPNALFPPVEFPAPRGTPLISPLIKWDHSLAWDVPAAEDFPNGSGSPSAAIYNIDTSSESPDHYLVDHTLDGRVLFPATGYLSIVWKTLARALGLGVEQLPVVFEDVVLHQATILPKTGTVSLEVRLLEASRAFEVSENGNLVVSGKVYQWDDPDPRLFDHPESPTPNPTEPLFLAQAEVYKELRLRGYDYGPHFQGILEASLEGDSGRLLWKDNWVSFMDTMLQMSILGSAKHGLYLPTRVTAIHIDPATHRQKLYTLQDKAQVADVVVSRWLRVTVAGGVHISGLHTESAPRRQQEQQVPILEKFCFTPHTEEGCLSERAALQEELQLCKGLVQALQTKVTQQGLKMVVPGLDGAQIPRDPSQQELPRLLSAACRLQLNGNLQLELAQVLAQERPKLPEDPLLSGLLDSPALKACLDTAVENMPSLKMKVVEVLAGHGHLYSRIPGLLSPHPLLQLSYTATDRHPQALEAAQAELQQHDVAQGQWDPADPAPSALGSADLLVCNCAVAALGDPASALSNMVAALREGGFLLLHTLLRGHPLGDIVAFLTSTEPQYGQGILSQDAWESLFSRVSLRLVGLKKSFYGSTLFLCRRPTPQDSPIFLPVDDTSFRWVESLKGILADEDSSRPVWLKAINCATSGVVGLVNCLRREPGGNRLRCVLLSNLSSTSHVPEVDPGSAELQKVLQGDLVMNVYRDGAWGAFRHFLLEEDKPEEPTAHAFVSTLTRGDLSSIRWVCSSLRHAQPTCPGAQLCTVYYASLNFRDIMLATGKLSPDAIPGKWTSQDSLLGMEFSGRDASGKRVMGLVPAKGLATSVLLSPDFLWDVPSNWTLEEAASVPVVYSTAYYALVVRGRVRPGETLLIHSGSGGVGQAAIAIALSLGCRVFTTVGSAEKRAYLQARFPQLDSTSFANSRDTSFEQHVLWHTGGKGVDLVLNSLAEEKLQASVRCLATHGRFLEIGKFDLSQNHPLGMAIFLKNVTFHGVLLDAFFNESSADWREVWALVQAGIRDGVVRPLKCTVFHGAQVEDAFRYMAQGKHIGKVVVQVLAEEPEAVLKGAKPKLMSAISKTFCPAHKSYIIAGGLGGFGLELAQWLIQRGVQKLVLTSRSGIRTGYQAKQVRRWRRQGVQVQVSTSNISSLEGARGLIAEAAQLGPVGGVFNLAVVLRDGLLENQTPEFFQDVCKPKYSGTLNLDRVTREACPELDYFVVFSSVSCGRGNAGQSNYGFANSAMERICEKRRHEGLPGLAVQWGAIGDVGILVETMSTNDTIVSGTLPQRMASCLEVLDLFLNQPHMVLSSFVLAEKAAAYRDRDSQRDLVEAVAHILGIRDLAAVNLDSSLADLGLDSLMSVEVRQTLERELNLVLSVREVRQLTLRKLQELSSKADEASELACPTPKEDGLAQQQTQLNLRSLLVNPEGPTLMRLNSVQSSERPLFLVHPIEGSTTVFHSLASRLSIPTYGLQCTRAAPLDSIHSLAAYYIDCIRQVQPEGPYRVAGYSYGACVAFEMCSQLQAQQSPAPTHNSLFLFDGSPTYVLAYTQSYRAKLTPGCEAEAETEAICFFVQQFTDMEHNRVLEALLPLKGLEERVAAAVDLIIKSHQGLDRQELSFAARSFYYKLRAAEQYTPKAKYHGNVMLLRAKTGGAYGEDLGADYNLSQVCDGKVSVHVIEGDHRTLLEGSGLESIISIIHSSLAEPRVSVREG
Briefly: FASN enzyme activity assay, fluorescence-based detection of CoA with CPM. It counts as biochemical. To be noted: 5 nM FASN, 150 μM NADPH, 10 μM acetyl-CoA, 25 μM malonyl-CoA, 90 minutes incubation; read-out: IC50 data for Compounds of Formulae I-V/V(a): Activity. The essentials: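 Human GST-tagged FASN, baculovirus-expressed (5 nM), in 50 mM HEPES pH 7.5 with 150 μM NADPH, 10 μM acetyl-CoA, 25 μM malonyl-CoA, 0.5% DMSO; malonyl-CoA-started, 90 min. Released CoA detected with CPM (50 μM dilution), 30 min, fluorescence ex 390/em 530. IC50 from variable-slope sigmoidal fit of % inhibition versus log concentration.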
For `CCC(=O)N1CC[C@H](Oc2ccc(-c3cnc4ccccc4c3)cc2)C1` [Example 343, (S)-1-(3-(4-(Quinolin-3-yl)phenoxy)pyrrolidin-1-yl)propan-1-one, HCl], the IC50 lay within 1000 to 10000 nM.

For `CCC(=O)N1CC[C@@H](Oc2ccc(-c3ccc4cccnc4c3)cc2)C1` [Example 344, (R)-1-(3-(4-(Quinolin-7-yl)phenoxy)pyrrolidin-1-yl)propan-1-one, HCl], the IC50 is 100 to 999 nM.

In the case of `CCC(=O)N1CC[C@@H](Oc2ccc(-c3cnc4ccccc4c3)cc2)C1` [Example 345, (R)-1-(3-(4-(quinolin-3-yl)phenoxy)pyrrolidin-1-yl)propan-1-one, HCl], the IC50 was 1000 to 10000 nM.

Take `CCC(=O)N1CCC(Oc2ccc(-c3cc(C)c4cccnc4c3)cc2)CC1` [Example 346, 1-(4-(4-(5-Methylquinolin-7-yl)phenoxy)piperidin-1-yl)propan-1-one, HCl]: the IC50 fell in the range of 100 to 999 nM.

Take `Cc1cc(-c2ccc(OC3CCN(C(=O)C4CC4)CC3)cc2)cc2ncccc12` [Example 347, Cyclopropyl(4-(4-(5-methylquinolin-7-yl)phenoxy)piperidin-1-yl)methanone, HCl]: the IC50 was in the range of 100 to 999 nM.

Turning to `CCC(=O)N1CCC(Oc2ccc(-c3cc(C)cc4ncccc34)cc2)CC1` [Example 348, 1-(4-(4-(7-methylquinolin-5-yl)phenoxy)piperidin-1-yl)propan-1-one HCl], the IC50 fell in the range of 1 to 99 nM.

As for `Cc1cc(-c2ccc(OC3CCN(C(=O)C4CC4)CC3)cc2)c2cccnc2c1` [Example 349, Cyclopropyl-{4-[4-(7-methyl-quinolin-5-yl)-phenoxy]-piperidin-1-yl}-methanone, HCl], the IC50 lay in the range of 1 to 99 nM.

On to `CCC(=O)N1CCC(Oc2ccc(-c3c(C)ccc4ncccc34)cc2)CC1` [Example 350, 1-(4-(4-(6-Methylquinolin-5-yl)phenoxy)piperidin-1-yl)propan-1-one HCl], for which the IC50 lay within 100 to 999 nM.

As for `Cc1ccc2ncccc2c1-c1ccc(OC2CCN(C(=O)C3CC3)CC2)cc1` [Example 351, Cyclopropyl(4-(4-(6-methylquinolin-5-yl)phenoxy)piperidin-1-yl)methanone, HCl], the IC50 fell in the range of 100 to 999 nM.

For `Cc1cc(-c2ccc(OC3CCN(C(=O)[C@H]4CCCO4)CC3)cc2)cc2ncccc12` [Example 352, (R)-(4-(4-(5-Methylquinolin-7-yl)phenoxy)piperidin-1-yl)(tetrahydrofuran-2-yl)methanone], the IC50 was in the range of 1 to 99 nM.

In the case of `Cc1cc(-c2ccc(OC3CCN(C(=O)[C@H]4CCCO4)CC3)cc2)c2cccnc2c1` [Example 353, (R)-(4-(4-(7-Methylquinolin-5-yl)phenoxy)piperidin-1-yl)(tetrahydrofuran-2-yl)methanone], the IC50 fell in the range of 1 to 99 nM.

Turning to `Cc1c(-c2ccc(OC3CCN(C(=O)C(F)(F)F)CC3)cc2)ccc2cccnc12` [Example 357, 2,2,2-Trifluoro-1-{4-[4-(8-methyl-quinolin-7-yl)-phenoxy]-piperidin-1-yl}-ethanone], the IC50 lay in the range of 1000 to 10000 nM.

As for `Cc1c(-c2ccc(OC3CCN(C(=O)C(C)(F)F)CC3)cc2)ccc2cccnc12` [Example 358, 2,2-Difluoro-1-{4-[4-(8-methylquinolin-7-yl)-phenoxy]-piperidin-1-yl}-propan-1-one, HCl], the IC50 was 100 to 999 nM.

For the molecule `Cc1c(-c2ccc(OC3CCN(C(=O)C(C)F)CC3)cc2)ccc2cccnc12` (stereo not shown) [Example 359, 2-Fluoro-1-{4-[4-(8-methylquinolin-7-yl)-phenoxy]-piperidin-1-yl}-propan-1-one, HCl], the IC50 was 1 to 99 nM.

For the molecule `Cc1c(-c2ccc(O[C@@H]3C[C@H]4CC[C@@H](C3)N4C(=O)[C@H]3CCCO3)cc2)ccc2cccnc12` [Example 360, {exo-3-[4-(8-Methylquinolin-7-yl)-phenoxy]-8-aza-bicyclo[3.2.1]oct-8-yl}-(R)-tetrahydrofuran-2-yl-methanone, HCl], the IC50 lay in the range of 100 to 999 nM.

Turning to `CCC(=O)N1[C@@H]2CC[C@H]1C[C@H](Oc1ccc(-c3ccc4cccnc4c3C)cc1)C2` [Example 361, 1-{exo-3-[4-(8-Methylquinolin-7-yl)-phenoxy]-8-aza-bicyclo[3.2.1]oct-8-yl}-propan-1-one HCl], the IC50 was in the range of 1000 to 10000 nM.

Regarding `Cc1c(-c2ccc(O[C@H]3CCN(C(=O)[C@H]4CCCO4)C[C@H]3F)cc2)ccc2cccnc12` [Example 366, {cis-3-Fluoro-4-[4-(8-methylquinolin-7-yl)-phenoxy]-piperidin-1-yl}-(R)-tetrahydrofuran-2-yl-methanone HCl], the IC50 is 1 to 99 nM.

With `CCC(=O)N1[C@@H]2CC[C@H]1C[C@@H](Oc1ccc(-c3ccc4cccnc4c3C)cc1)C2` [Example 369, 1-{endo-3-[4-(8-Methylquinolin-7-yl)-phenoxy]-8-aza-bicyclo[3.2.1]oct-8-yl}-propan-1-one, HCl], the IC50 is 100 to 999 nM.

For the molecule `Cc1c(-c2ccc(O[C@H]3C[C@H]4CC[C@@H](C3)N4C(=O)C3CC3)cc2)ccc2cccnc12` [Example 370, Cyclopropyl-{endo-3-[4-(8-methylquinolin-7-yl)-phenoxy]-8-aza-bicyclo-[3.2.1]oct-8-yl}-methanone, HCl], the IC50 lay within 100 to 999 nM.

Take `Cc1c(-c2ccc(O[C@H]3C[C@H]4CC[C@@H](C3)N4C(=O)[C@H]3CCCO3)cc2)ccc2cccnc12` [Example 371, {endo-3-[4-(8-Methylquinolin-7-yl)-phenoxy]-8-aza-bicyclo[3.2.1]oct-8-yl}-(R)-tetrahydrofuran-2-yl-methanone, HCl]: the IC50 was in the range of 1 to 99 nM.

As for `Cc1c(-c2ccc(OC3CCN(C(=O)C4CC4)CC3C)cc2)ccc2cccnc12` (stereo not shown) [Example 376, Cyclopropyl-{3-methyl-4-[4-(8-methylquinolin-7-yl)-phenoxy]-piperidin-1-yl}-methanone, TFA salt], the IC50 fell in the range of 1 to 99 nM.

For `CCC(=O)N1CCC(Oc2ccc(-c3ccc(-c4ccccc4)nc3)cc2)CC1` [Example 378, 1-{4-[4-(6-Phenyl-pyridin-3-yl)-phenoxy]-piperidin-1-yl}-propan-1-one], the IC50 fell in the range of 1000 to 10000 nM.

For the molecule `CC(C)C(=O)N1CCC(Oc2ccc(-c3ccc(-c4ccccc4)nc3)cc2)CC1` [Example 379, 2-Methyl-1-{4-[4-(6-phenylpyridin-3-yl)-phenoxy]-piperidin-1-yl}-propan-1-one], the IC50 was 1000 to 10000 nM.

On to `O=C(C1CC1)N1CCC(Oc2ccc(-c3ccc(-c4ccccc4)nc3)cc2)CC1` [Example 380, Cyclopropyl-{4-[4-(6-phenyl-pyridin-3-yl)-phenoxy]-piperidin-1-yl}-methanone], for which the IC50 was in the range of 1000 to 10000 nM.

Turning to `O=C(C1CCC1)N1CCC(Oc2ccc(-c3ccc(-c4ccccc4)nc3)cc2)CC1` [Example 381, Cyclobutyl-{4-[4-(6-phenyl-pyridin-3-yl)-phenoxy]-piperidin-1-yl}-methanone], the IC50 lay within 100 to 999 nM.

Consider `CCC(=O)N1CCC(Oc2ccc(-c3cncc(-c4ccccc4)c3)cc2)CC1` [Example 382, 1-{4-[4-(5-Phenylpyridin-3-yl)-phenoxy]-piperidin-1-yl}-propan-1-one], for which the IC50 is 1000 to 10000 nM.

Turning to `CC(C)C(=O)N1CCC(Oc2ccc(-c3cncc(-c4ccccc4)c3)cc2)CC1` [Example 383], the IC50 was 1000 to 10000 nM.

As for `O=C(C1CC1)N1CCC(Oc2ccc(-c3cncc(-c4ccccc4)c3)cc2)CC1` [Example 384, Cyclopropyl-{4-[4-(5-phenyl-pyridin-3-yl)-phenoxy]-piperidin-1-yl}-methanone, TFA salt], the IC50 lay within 1000 to 10000 nM.
